{"source": "ChEMBL document CHEMBL1201862", "about": "“PubChem BioAssay data set” (2004)", "key": {"[1]": {"molecular_target": "T1, Melanin-concentrating hormone receptor 1 (Homo sapiens, UniProt Q99705)", "T1 sequence (Q99705 whole entry)": "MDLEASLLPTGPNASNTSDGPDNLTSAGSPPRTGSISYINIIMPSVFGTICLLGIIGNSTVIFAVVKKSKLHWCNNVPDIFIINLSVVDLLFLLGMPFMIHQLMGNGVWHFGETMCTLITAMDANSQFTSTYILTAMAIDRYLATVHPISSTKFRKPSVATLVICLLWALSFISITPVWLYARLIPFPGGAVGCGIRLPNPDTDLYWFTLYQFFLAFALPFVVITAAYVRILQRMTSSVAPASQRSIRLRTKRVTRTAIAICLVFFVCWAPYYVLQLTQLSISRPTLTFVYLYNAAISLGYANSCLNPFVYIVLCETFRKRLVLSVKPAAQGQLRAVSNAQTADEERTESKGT", "experiment": "Late-stage fluorescence-based counterscreen for antagonists of the G-protein coupled receptor 7 (GPR7): cell-based dose response assay to identify antagonists of the melanin-concentrating hormone receptor 1 (MCHR1). [Related pubchem assays (depositor defined):AID1861, AID1880, AID1952, AID2148, AID2251, AID2257, AID485339]", "format": "functional"}, "Cytochrome P450 2C19": {"molecular_target": "Cytochrome P450 2C19 (Homo sapiens, UniProt P33261)", "sequence (P33261 whole entry)": "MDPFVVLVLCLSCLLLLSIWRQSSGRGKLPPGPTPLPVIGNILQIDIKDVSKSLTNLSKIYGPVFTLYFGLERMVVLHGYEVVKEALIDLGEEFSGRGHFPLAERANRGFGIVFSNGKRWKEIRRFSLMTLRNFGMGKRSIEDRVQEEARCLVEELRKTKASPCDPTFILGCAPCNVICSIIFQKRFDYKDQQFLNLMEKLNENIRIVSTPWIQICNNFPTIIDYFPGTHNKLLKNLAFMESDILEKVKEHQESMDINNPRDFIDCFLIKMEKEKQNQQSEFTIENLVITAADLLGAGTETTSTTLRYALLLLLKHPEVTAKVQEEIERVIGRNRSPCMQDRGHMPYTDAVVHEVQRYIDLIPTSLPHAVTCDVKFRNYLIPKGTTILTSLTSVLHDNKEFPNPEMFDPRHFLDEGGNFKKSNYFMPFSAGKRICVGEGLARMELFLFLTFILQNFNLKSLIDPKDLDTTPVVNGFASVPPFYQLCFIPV", "experiment": "qHTS Assay for Inhibitors and Substrates of Cytochrome P450 2C19. [Related pubchem assays: 410 ]", "format": "ADME", "settings": "read-out: Potency"}, "Cytochrome P450 2C9": {"molecular_target": "Cytochrome P450 2C9 (Homo sapiens, UniProt P11712)", "sequence (P11712 whole entry)": "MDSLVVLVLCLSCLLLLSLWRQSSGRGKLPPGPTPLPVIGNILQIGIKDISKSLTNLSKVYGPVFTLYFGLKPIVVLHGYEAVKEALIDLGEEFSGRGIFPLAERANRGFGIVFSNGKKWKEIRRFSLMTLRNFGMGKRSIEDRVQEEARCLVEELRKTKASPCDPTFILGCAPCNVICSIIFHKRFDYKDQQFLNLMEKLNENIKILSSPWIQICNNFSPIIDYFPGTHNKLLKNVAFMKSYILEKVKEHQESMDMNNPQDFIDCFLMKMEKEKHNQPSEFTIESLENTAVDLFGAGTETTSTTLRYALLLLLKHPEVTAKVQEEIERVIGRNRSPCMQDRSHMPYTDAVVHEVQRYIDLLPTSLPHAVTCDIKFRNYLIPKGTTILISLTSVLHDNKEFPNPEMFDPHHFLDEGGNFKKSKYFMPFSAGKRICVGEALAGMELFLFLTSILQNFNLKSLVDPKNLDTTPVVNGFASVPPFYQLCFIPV", "settings": "Potency"}, "[2]": {"molecular_target": "T1, Melanin-concentrating hormone receptor 1", "experiment": "Fluorescence-based counterscreen for antagonists of the G-protein coupled receptor 7 (GPR7): cell-based high throughput dose response assay to identify antagonists of the melanin-concentrating hormone receptor 1 (MCHR1).", "format": "functional"}, "[3]": {"molecular_target": "T2, Neuropeptides B/W receptor type 1 (Homo sapiens, UniProt P48145)", "T2 sequence (P48145 whole entry)": "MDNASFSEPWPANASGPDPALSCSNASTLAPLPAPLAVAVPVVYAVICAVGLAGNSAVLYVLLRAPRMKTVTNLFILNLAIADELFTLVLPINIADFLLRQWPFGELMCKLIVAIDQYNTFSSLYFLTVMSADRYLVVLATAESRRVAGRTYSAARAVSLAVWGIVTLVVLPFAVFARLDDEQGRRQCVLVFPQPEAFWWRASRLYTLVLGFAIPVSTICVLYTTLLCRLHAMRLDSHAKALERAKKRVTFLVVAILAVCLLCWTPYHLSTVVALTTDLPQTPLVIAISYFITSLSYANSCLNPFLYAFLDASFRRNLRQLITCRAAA", "experiment": "Fluorescence-based dose response cell-based high throughput screening assay to identify antagonists of the G-protein coupled receptor 7 (GPR7). [Related pubchem assays: 1952 (Screening assay (GPR7 antagonists).), 1880 (Summary AID.)]", "format": "functional"}, "[4]": {"molecular_target": "T3, Alkaline phosphatase, tissue-nonspecific isozyme (Homo sapiens, UniProt P05186)", "T3 sequence (P05186 whole entry)": "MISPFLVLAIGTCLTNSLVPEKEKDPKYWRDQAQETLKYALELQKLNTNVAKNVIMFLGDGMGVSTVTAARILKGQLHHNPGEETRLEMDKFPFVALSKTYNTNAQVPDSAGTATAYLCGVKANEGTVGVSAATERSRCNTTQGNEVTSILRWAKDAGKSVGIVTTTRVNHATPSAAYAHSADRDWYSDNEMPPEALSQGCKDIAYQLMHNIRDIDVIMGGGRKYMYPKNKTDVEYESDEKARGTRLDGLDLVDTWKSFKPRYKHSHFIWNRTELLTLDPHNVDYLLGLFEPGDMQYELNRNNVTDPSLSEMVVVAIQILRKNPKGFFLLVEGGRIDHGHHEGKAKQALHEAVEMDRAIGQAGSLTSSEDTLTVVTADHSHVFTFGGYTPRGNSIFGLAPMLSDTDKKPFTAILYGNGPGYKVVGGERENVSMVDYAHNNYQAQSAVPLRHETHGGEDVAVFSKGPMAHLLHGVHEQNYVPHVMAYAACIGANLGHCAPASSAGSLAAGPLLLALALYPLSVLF"}, "[5]": {"experiment": "viability loss of HPDE-C7K cells – cell-based, fluorescence, HTS, primary screen (AID 431)", "format": "functional", "settings": "Homo sapiens"}, "Protein RecA": {"molecular_target": "T4, Protein RecA (Mycobacterium tuberculosis, UniProt P9WHJ3)", "T4 sequence (P9WHJ3 whole entry)": "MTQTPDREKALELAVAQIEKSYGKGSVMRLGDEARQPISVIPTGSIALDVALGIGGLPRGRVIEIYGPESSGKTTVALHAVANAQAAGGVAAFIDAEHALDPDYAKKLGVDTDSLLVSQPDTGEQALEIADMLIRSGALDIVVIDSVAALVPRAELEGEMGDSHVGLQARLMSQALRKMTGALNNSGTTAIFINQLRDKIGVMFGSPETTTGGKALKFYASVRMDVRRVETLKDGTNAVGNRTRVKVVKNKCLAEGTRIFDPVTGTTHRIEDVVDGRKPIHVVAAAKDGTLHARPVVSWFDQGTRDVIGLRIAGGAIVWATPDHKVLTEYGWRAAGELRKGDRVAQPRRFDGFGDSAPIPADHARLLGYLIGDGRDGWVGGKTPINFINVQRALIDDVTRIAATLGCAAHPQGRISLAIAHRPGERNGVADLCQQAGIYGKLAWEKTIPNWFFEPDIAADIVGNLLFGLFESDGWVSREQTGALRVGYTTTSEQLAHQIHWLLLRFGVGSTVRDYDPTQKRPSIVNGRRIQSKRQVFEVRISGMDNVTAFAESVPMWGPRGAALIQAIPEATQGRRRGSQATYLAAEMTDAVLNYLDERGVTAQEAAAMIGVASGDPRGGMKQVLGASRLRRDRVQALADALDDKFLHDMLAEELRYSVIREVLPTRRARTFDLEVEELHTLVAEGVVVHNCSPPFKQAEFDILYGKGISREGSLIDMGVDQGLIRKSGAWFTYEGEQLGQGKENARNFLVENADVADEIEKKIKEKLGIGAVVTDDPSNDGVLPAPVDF", "experiment": "Fluorescence Cell-Free Homogeneous Dose Retest to Identify Inhibitors of RecA-Intein Splicing Activity. [Related pubchem assays (depositor defined):AID2097, AID2223, AID489010, AID492950]", "format": "functional"}, "[6]": {"experiment": "Potency on glucagon-like peptide 1 release, dose-response in NCI-H716 cell line, half maximal inhibitory concentration (AID 1117344)", "format": "functional, cell-based"}, "[7]": {"experiment": "HPDE-C7 pancreatic duct cell viability loss – fluorescence, HTS (AID 430)", "format": "functional, cell-based", "settings": "Homo sapiens"}, "[8]": {"molecular_target": "T5, Replicative DNA helicase DnaB (Mycobacterium tuberculosis, UniProt P9WMR3)", "T5 sequence (P9WMR3 whole entry)": "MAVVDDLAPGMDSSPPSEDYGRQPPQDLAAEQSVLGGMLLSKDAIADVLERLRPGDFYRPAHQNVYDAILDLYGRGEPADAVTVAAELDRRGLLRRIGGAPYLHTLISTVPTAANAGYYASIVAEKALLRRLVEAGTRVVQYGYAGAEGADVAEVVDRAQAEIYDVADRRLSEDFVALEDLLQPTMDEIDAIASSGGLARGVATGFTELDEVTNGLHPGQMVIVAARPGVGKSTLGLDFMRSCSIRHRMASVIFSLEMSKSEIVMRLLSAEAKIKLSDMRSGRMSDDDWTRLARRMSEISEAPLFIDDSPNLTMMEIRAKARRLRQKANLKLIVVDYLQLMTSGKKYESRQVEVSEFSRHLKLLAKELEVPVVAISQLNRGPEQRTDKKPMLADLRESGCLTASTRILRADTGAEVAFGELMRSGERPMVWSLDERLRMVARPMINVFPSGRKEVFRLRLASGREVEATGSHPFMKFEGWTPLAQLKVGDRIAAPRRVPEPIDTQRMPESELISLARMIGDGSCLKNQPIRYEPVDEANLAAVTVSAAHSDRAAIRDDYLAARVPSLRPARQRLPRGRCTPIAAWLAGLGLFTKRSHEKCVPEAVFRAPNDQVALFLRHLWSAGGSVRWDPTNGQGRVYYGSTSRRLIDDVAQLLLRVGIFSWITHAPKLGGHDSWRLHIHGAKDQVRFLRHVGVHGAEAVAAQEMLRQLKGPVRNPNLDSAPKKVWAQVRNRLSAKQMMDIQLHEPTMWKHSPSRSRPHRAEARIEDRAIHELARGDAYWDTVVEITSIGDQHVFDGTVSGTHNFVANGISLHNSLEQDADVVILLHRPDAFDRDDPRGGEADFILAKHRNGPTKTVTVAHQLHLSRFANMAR", "experiment": "DnaB intein splicing inhibitors, dose response, biochemical, cell-free fluorescence (AID 449749)", "format": "functional"}, "[9]": {"molecular_target": "Heat shock protein HSP 90-alpha (Homo sapiens, UniProt P07900)", "format": "functional, organism-based"}, "[10]": {"experiment": "glucagon-like peptide-1 release potency in STC-1, concentration-response, half-maximal inhibitory concentration in the STC-1 line (AID 1117345)", "format": "functional, cell-based"}}, "note": "Activity calls are given as the source filed them.", "data": [{"smiles": "COc1ccc(Oc2c(/C=N/O)cnn(-c3ccc(C(C)C)cc3)c2=O)cc1", "values": [{"measurement": "IC50", "setting": "[1]", "result": "> 20 µM (inactive)"}]}, {"smiles": "CCCCCCCCCCCCCCCCOC[C@@H](COCC(F)(F)F)OP(=O)(O)OCO", "values": [{"measurement": "AC50", "setting": "Cytochrome P450 2C19", "result": "0.002 µM (inconclusive)"}, {"measurement": "AC50", "setting": "Cytochrome P450 2C9", "result": "39.8 µM (inconclusive)"}]}, {"smiles": "Cc1ccc(C(=O)N2CCCCC2)cc1S(=O)(=O)N1CCCCCC1", "values": [{"measurement": "IC50", "setting": "[2]", "result": "> 43.8 µM (not active)"}, {"measurement": "IC50", "setting": "[3]", "result": "> 43.8 µM (not active)"}]}, {"smiles": "Clc1ccc(CSC(Cn2ccnc2)c2ccc(Cl)cc2Cl)cc1", "note": "(stereo not drawn) [SULCONAZOLE NITRATE]", "values": [{"measurement": "EC50", "setting": "[4]", "result": "60.3 µM (not active)"}, {"measurement": "EC50", "setting": "[5]", "result": "8.21 µM (active)"}, {"measurement": "EC50", "setting": "Protein RecA", "result": "9.78 µM (active)"}, {"measurement": "IC50", "setting": "[6]", "result": "21 µM (inactive)"}, {"measurement": "EC50", "setting": "[7]", "result": "7.1 µM (active)"}, {"measurement": "AC50", "setting": "[8]", "result": "3.52 µM (active)"}, {"measurement": "AC50", "setting": "[9]", "result": "0.294 µM (active)"}, {"measurement": "IC50", "setting": "[10]", "result": "> 40 µM (inactive)"}]}]}
